Drawing on ChEMBL document CHEMBL1132896, “Beta-casomorphins: substitution of phenylalanine with beta-homo phenylalanine increases the mu-type opioid receptor affinity” (Bioorg Med Chem Lett, 2000), this text covers Ki and IC50 for four compounds.

Non-standard residues stand in square brackets, D forms with d. Residues, ends and D or L forms follow the SMILES beside them. β3hF = N[C@H](CC(=O)O)Cc1ccccc1

In test [1] the target is T1, Mu-type opioid receptor (Rattus norvegicus, UniProt P33535). In words: Compound was evaluated for the binding affinity of Opioid receptor mu 1 by displacing the radioligand [3H]DAMGO from rat brain membrane.
T1 sequence (P33535 whole entry): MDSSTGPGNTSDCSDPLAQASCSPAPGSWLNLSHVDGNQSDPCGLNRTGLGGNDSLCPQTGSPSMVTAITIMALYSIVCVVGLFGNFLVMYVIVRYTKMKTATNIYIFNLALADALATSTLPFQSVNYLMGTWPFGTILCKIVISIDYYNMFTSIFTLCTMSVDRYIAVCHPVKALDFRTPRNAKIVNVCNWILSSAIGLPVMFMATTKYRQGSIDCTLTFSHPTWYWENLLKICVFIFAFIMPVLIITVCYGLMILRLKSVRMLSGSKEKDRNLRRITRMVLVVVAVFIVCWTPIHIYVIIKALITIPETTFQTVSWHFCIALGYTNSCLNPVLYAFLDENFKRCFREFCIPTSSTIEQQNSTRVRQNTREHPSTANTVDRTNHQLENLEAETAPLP
The target in test [2] is T1, Mu-type opioid receptor. Description: Inhibitory concentration against [3H]DAMGO binding to Opioid receptor mu 1 in rat brain membrane. Format: cell membranes.

With `N[C@@H](Cc1ccc(O)cc1)C(=O)N1CCC[C@H]1C(=O)N[C@@H](Cc1ccccc1)C(=O)N1CCC[C@H]1C(=O)NCC(=O)O` (H-YPFPG-OH), in test [1], the Ki is 1.62 µM. In test [2], this compound registered an IC50 of 4.5 µM.
Compound `CC[C@H](C)[C@H](NC(=O)[C@@H]1CCCN1C(=O)CNC(=O)[C@@H]1CCCN1C(=O)[C@H](Cc1ccccc1)NC(=O)[C@@H]1CCCN1C(=O)[C@@H](N)Cc1ccc(O)cc1)C(=O)O` (H-YPFPGPI-OH) had a Ki in test [1] of 7.54 µM. The compound further registered an IC50 in test [2] of 20 µM.
In the case of `N[C@@H](Cc1ccc(O)cc1)C(=O)N1CCC[C@H]1C(=O)N[C@H](CC(=O)N1CCC[C@H]1C(=O)NCC(=O)O)Cc1ccccc1` (H-YP[β3hF]PG-OH), in test [1], the Ki was found to be 0.72 µM. The compound also displayed an IC50 in test [2] of 2 µM.
In the same order, the values of `CC[C@H](C)[C@H](NC(=O)[C@@H]1CCCN1C(=O)CNC(=O)[C@@H]1CCCN1C(=O)C[C@H](Cc1ccccc1)NC(=O)[C@@H]1CCCN1C(=O)[C@@H](N)Cc1ccc(O)cc1)C(=O)O` (H-YP[β3hF]PGPI-OH) are 1.44 µM and 4 µM.

The Ki is the dissociation constant of the complex between target and ligand, obtained from inhibition or displacement. A low value points to a stronger hold on the target. Broadly, the IC50 is the concentration that inhibits the measured activity by half. Higher therefore signals a need for much substance.
